Assay results taken from patent US7629368B2, “Nitroderivatives as drugs for diseases having an inflammatory basis” (Nicox S.A., priority 2000, dated 2009).

How the values were obtained:
[1] = tested on: LNCaP human epithelial cells of prostate cancer; test: Antiproliferative activity, MTT, prostate cancer line LNCaP; format: cell-based; settings: 96 h, 4 days, vs DMSO 1%, read-out: Inhibition of the proliferative activity (%); for inhibition at 100 µM: 10^-4 M; for inhibition at 10 µM: 10^-5 M; for inhibition at 1 µM: 10^-6 M
Method: (§1) Determination of the Antiproliferative Activity of the Compounds of the Invention in Cancerous Epithelial Cells of Bladder and Prostate.
(§2) The experiment was carried out by using three human epithelial cellular lines of the prostate cancer (PNT1A; LLNCaP; PC3) and three human epithelial cellular lines of the bladder cancer (T24; 647V; 1207), the various types of cellular lines are identified on the basis of the characteristics, in particular of the aggressiveness, of the cancerous process.
(§3) The cancerous cells are sown, with an initial concentration of 20,000 cells/cm^2, in plates having 96 wells with a cellular culture medium RPMI added with foetal bovine serum 5% and L-Glutamine 1%. Solutions in dimethylsulphoxide of the tested compounds at three different concentrations (10^−6 M; 10^−5M; 10^−4M) or the carrier (DMSO 1%) are added to the culture medium. 4 days after the treatment the cellular growth was measured by the method with MTT (3-[4,5-dimethylthiazol-2-yl]-2,5-diphenyltetrazolium bromide) de-scribed by Turner in: Turner T., Chen P., Goodly L. J., Wells A. Clin. Exp. Metastasis 1996, 14, 409-418. The results, reported in Table 3, are expressed as inhibition percentage of the cellular proliferation determined by measuring the cellular proliferation in the cellular cultures treated with the tested compounds with respect to that measured in cellular cultures treated with dimethylsulphoxide 1%.

[2] = tested on: human epithelial cellular lines of the prostate cancer and of the bladder cancer; test: Antiproliferative activity in prostate and bladder cancer lines, summary in words; format: cell-based
Method: as §2, §3
The compound of Ex. 7, reported in the Table with the simplified denomination of nitrooxybutyl ester of the aspirin der. with ferulic ac. is active, at 10^−5 concentrations, in prostate tumours as shown by the results obtained on the cellular lines LNCaP and PC3.

[3] = tested on: PC3 human epithelial cells of prostate cancer; test: Antiproliferative activity, MTT, prostate cancer line PC3; format: cell-based; settings: Epithelial cell, 96 h, 4 days, vs DMSO 1%, read-out: Inhibition of the proliferative activity (%); for inhibition at 100 µM: 10^-4 M; for inhibition at 10 µM: 10^-5 M; for inhibition at 1 µM: 10^-6 M
Method: as §1, §2, §3

[4] = tested on: 1207 human epithelial cells of bladder cancer; test: Antiproliferative activity, MTT, bladder cancer line 1207; format: cell-based; settings: Epithelial cell, 96 h, 4 days, vs DMSO 1%, read-out: Inhibition of the proliferative activity (%); for inhibition at 100 µM: 10^-4 M; for inhibition at 10 µM: 10^-5 M; for inhibition at 1 µM: 10^-6 M
Method: as §1, §2, §3

[5] = tested on: 647V human epithelial cells of bladder cancer; test: Antiproliferative activity, MTT, bladder cancer line 647V; format: cell-based; settings: 96 h, 4 days, vs DMSO 1%, read-out: Inhibition of the proliferative activity (%); for inhibition at 100 µM: 10^-4 M; for inhibition at 10 µM: 10^-5 M; for inhibition at 1 µM: 10^-6 M
Method: as §1, §2, §3

[6] = tested on: Human adenocarcinoma (HT29) cells; test: Antiproliferative activity in cancerous cells, cellular growth by haemocytometer; format: cell-based; settings: 96 hours, controls = 100, read-out: Proliferation %
Method: Determination of the Antiproliferative Activity of the Compounds of the Invention in Cancerous Cells.
Human adenocarcinoma (HT29) cells taken from colon affected by cancerous process were transferred into plates with 24 wells containing a cellular culture medium formed by 10% of foetal bovine serum, penicillin (50 U/ml), streptomycin ([…]) and PEG 400 (polyethylenglycol). After 24 hours a part of the plates is inoculated with the tested compounds dissolved in the carrier (PEG 400). 96 hours after the inoculation of the compounds the cellular growth was measured by haemocytometer. The results, reported in Table 2, are expressed as percentage of the cellular proliferation with respect to the controls.

[7] = tested on: T24 human epithelial cells of bladder cancer; test: Antiproliferative activity, MTT, bladder cancer line T24; format: cell-based; settings: Epithelial cell, 96 h, 4 days, vs DMSO 1%, read-out: Inhibition of the proliferative activity (%); for inhibition at 100 µM: 10^-4 M; for inhibition at 10 µM: 10^-5 M; for inhibition at 1 µM: 10^-6 M
Method: as §1, §2, §3

[8] = tested on: PNT1A human epithelial cells of prostate cancer; test: Antiproliferative activity, MTT, prostate cancer line PNT1A; format: cell-based; settings: 96 h, 4 days, vs DMSO 1%, read-out: Inhibition of the proliferative activity (%); for inhibition at 100 µM: 10^-4 M; for inhibition at 10 µM: 10^-5 M; for inhibition at 1 µM: 10^-6 M
Method: as §1, §2, §3

[9] = tested on: liver injury induced by concanavalin A; test: Protection from liver injury induced by concanavalin A; format: in vivo; settings: ip; plasmatic glutamic-pyruvic transaminase vs treated control group (=100); 200 mg/kg intraperitoneal; 8 hours after concanavalin A 0.3 mg/rat i.v.
Description: Determination of the capability of the compounds of the invention to protect the animals from the liver injury induced by concanavalin A.
The model in vivo used in the present example has been described in Tiegs G, Hentshel J, A Wendel. A T cell-dependent experimental liver injury in mice induced by Concanavalin A. J. Clin. Invest. 1992; 90:196-203.
The animals ([…] of Swiss stock weighing about 20 g) are divided in groups of at least No. 10 animals for group.
The animals receive concanavalin and solvent (treated control group), solvent (polyethylene glycol 400-untreated control group), concanavalin and tested compound dissolved in the solvent (treated groups).
Rats are treated intravenously with concanavalin A (0.3 mg/rat), and after 5 minutes they receive by intraperitoneal injection the tested compounds, at the doses reported in Table 1, dissolved in polyethylenglycol 400.
Eight hours after the concanavalin A injection all the animals were sacrificed and the blood collected and examined. The data, reported in Table 1, are expressed as value of the plasmatic glutamic-pyruvic transaminase percentage of the animals treated with the tested compound with respect to the animals of the treated control group.

| Compound | inhibition at 100 µM [1] | inhibition at 10 µM [1] | inhibition at 1 µM [1] | inhibition at 100 µM [3] | inhibition at 10 µM [3] | inhibition at 1 µM [3] | inhibition at 100 µM [4] | inhibition at 10 µM [4] | inhibition at 1 µM [4] | inhibition at 100 µM [5] | inhibition at 10 µM [5] | inhibition at 1 µM [5] | inhibition at 100 µM [7] | inhibition at 10 µM [7] | inhibition at 1 µM [7] | inhibition at 100 µM [8] | inhibition at 10 µM [8] | inhibition at 1 µM [8] | also measured |
| --- | --- | --- | --- | --- | --- | --- | --- | --- | --- | --- | --- | --- | --- | --- | --- | --- | --- | --- | --- |
| CC1=C(CC(=O)OCCCCO[N+](=O)[O-])c2cc(F)ccc2/C1=C\c1ccc([S+](C)[O-])cc1 (stereo not shown) [Ex. 18] | 88% | 74% | 17% | 74% | 68% | 5% | 88% | 74% | 0% | 92% | 80% | 9% | 93% | 82% | 0% | 81% | 38% | 3% | inhibitory effect on the proliferation of all kinds of cancerous cells examined (in words) ([2]; 10^-5 M, all six prostate and bladder lines): strong inhibitory effect; activity at 50 µM ([6]; HT-29, 50 μM): 0%; response vs control in vivo at 200 mg/kg [9]: 18% |
| CC(=O)Oc1ccccc1C(=O)Oc1ccc(CO[N+](=O)[O-])cc1 [Ex. 6, 2-(acetyloxy)benzoic Acid 4-(nitrooxymethyl)phenyl ester] |  |  |  |  |  |  |  |  |  |  |  |  |  |  |  |  |  |  | melting point: 86 to 88 °C; activity at 10 µM ([6]; HT-29, 10 μM): 0% |
| COc1cc(/C=C/C(=O)OCCCCO[N+](=O)[O-])ccc1OC(=O)c1ccccc1OC(C)=O [Ex. 7, trans-3-[4-[2-(acetyloxy)benzoyloxy]-3-methoxyphenyl]-2-propenoic acid 4-(nitrooxy)butyl ester] | 81% | 47% | 20% | 69% | 30% | 1% | 82% | 24% | 4% | 50% | 0% | 0% | 55% | 0% | 2% | 72% | 0% | 0% | activity in prostate tumours (in words) ([2]; 10^-5 concentrations, cellular lines LNCaP and PC3): active; activity at 300 µM ([6]; HT-29, 300 μM): 50% |
